Laboratory results: the supplement of paper PMC10307832

Experiments:
Assay in all cases: relative viability (nuclei count vs DMSO), 5 days (fraction); higher = more cells survive
[1] = compound: CC1=CN2C(=O)C=C(N=C2C(=C1)C(C)NC3=CC=CC=C3)N4CCOCC4 [TGX 221] + C[C@@H](Oc1cc(-c2cnn(C3CCNCC3)c2)cnc1N)c1c(Cl)ccc(F)c1Cl [Crizotinib] (partner 1 µM)
How it was run: (§1)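 Lung cancer cell lines in 1536-well plates were dosed by pin tool the day after seeding, either with one drug alone or with a fixed anchor-drug dose plus five library-drug doses (not always all listed) in √10 steps. After 5 days, cells were fixed and their nuclei stained in one step (final 0.05% Triton X-100, 1% formaldehyde, 1 ug/ml Hoechst), then counted on 4× images. Relative viability is the nuclei count in treated wells divided by that in vehicle wells. Values are medians of duplicate plates.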

[2] = compound: O=C(CCCCCCNC(=O)c1cnc(N(c2ccccc2)c2ccccc2)nc1)NO [Ricolinostat] + C[C@@H](Oc1cc(-c2cnn(C3CCNCC3)c2)cnc1N)c1c(Cl)ccc(F)c1Cl [Crizotinib] (partner 1 µM)
How it was run: as §1

[3] = compound: O=C(CCCCCCNC(=O)c1cnc(N(c2ccccc2)c2ccccc2)nc1)NO [Ricolinostat] + Nc1nc2[nH]cc(CCc3ccc(C(=O)N[C@@H](CCC(=O)O)C(=O)O)cc3)c2c(=O)[nH]1 [Pemetrexed] (partner 0.2 µM)
How it was run: as §1

[4] = compound: O=C(CCCCCCNC(=O)c1cnc(N(c2ccccc2)c2ccccc2)nc1)NO [Ricolinostat] + CCNC(=O)c1noc(-c2cc(C(C)C)c(O)cc2O)c1-c1ccc(CN2CCOCC2)cc1 [Luminespib] (partner 0.01 µM)
How it was run: as §1

Cell Line	relative viability ([1]; first compound 0.08 µM)	relative viability ([1]; first compound 0.253 µM)	relative viability ([1]; first compound 0.8 µM)	relative viability ([1]; first compound 2.53 µM)	relative viability ([1]; first compound 8 µM)	relative viability ([2]; first compound 0.08 µM)	relative viability ([2]; first compound 0.253 µM)	relative viability ([2]; first compound 0.8 µM)	relative viability ([2]; first compound 2.53 µM)	relative viability ([3]; first compound 0.08 µM)	relative viability ([3]; first compound 0.253 µM)	relative viability ([3]; first compound 0.8 µM)	relative viability ([3]; first compound 2.53 µM)	relative viability ([4]; first compound 0.08 µM)	relative viability ([4]; first compound 0.253 µM)	relative viability ([4]; first compound 0.8 µM)	relative viability ([4]; first compound 2.53 µM)
SK-MES-1	1.05	0.982	0.998	0.841	0.582	0.912	0.96	1.04	0.969	0.878	0.982	0.876	0.91	0.84	0.865	0.609	0.757
NCI-H647	1.12	0.947	1.06	1.04	0.553	1.08	1.05	1.01	0.661	0.192	0.18	0.174	0.134	0.161	0.238	0.117	0.21
LK-2	0.252	0.212	0.235	0.213	0.269		0.259	0.213	0.253	0.217	0.256	0.231	0.216	0.18	0.191	0.168	0.177
LU99A	0.493	0.577	0.516	0.517	0.563	0.581	0.604	0.38	0.409	0.188	0.159	0.184	0.156	0.254	0.224	0.239	0.25
NCI-H661		1.12	0.973	0.959	1.07		0.99	0.973	0.984	0.832	0.879	0.9	0.776	0.743	0.886	0.881	0.685
NCI-H520	0.532	0.724	0.68	0.572	0.398		0.667	0.707	0.782		0.762	0.744	0.628		0.208	0.295	0.233
NCI-H1666	1	0.933	0.988	0.935	0.957	0.767	1.16	0.944	0.776	0.805	0.841	0.867	0.871	0.969	1.04	0.976	0.836
EKVX	0.85	0.832	0.843	0.927	0.773		0.762	0.958	1.01	0.34	0.394	0.335	0.406	0.74	0.783		0.902
HARA	1.06	1.02	0.905	1.16	0.795	0.925	0.948	0.926	0.712	0.254	0.256	0.213	0.274	0.787	0.606	0.478	0.349
A-427	0.958	0.924	0.879	0.776	0.824	0.747	0.869	0.82	0.63	0.711	0.941	0.828	0.832		0.81	0.605	0.698
NCI-H2087	1.02	1.01	0.802	0.979	1.19	0.891	0.791	0.709	0.688	0.656	0.646	0.608	0.584		0.205	0.15	0.159
NCI-H460	0.754	0.811	1.05	0.896	0.64	1.01	0.924	0.84	0.645	0.0618	0.0585	0.0722	0.0727	0.0274	0.0237	0.0543	0.0362
PC-14	0.934	0.845	0.865	0.85	0.885	0.882	0.912	0.907	0.761	0.147	0.139	0.141	0.195		0.172	0.177	0.169
NCI-H2009	0.964	0.978	1	1.03	0.773	1.02	1.04	0.938	0.888	0.977	1.02	0.965	0.92	0.99	0.927	0.91	0.84
COR-L 105	0.883	0.748	0.967	0.728	0.519	0.669	0.854	0.643	0.646	0.901	1.08	1.2	1.24		0.746	0.765	0.749
NCI-H1993	0.778	0.815	0.951	0.807	0.774	0.798	0.854	0.923	0.964	0.549	0.581	0.615	0.547		0.941	0.87	0.724
SW 1573	0.723	0.72	0.74	0.769	0.756	0.761	0.851	0.784	0.733	0.857	0.742	1.07	0.864	0.389	0.214	0.144	0.154
